Laboratory results published in ChEMBL document CHEMBL3393036, “Tetra-substituted pyridinylimidazoles as dual inhibitors of p38α mitogen-activated protein kinase and c-Jun N-terminal kinase 3 for potential treatment of neurodegenerative diseases” (J Med Chem, 2015).

Key:
[1] = target: T1, Aurora kinase A (Homo sapiens) (UniProt O14965); assay: Inhibition of AURKA (unknown origin) at 5.5 uM by Caliper Mobility Shift Assay
T1 sequence (whole entry): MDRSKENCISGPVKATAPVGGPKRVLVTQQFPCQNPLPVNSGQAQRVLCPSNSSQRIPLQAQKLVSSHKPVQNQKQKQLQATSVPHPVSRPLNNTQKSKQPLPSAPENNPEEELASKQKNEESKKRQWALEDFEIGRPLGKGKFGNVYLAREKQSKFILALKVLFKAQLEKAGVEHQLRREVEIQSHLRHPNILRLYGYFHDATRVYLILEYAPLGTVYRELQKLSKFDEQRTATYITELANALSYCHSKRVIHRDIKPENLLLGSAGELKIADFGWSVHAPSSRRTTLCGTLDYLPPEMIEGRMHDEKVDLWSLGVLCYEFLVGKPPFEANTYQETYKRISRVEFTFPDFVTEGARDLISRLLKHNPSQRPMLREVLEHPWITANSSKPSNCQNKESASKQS

[2] = target: Epidermal growth factor receptor (Homo sapiens) (UniProt P00533); assay: Inhibition of EGFR (HER1) (unknown origin) at 5.5 uM by Caliper Mobility Shift Assay
[3] = target: MAP kinase-interacting serine/threonine-protein kinase 1 (Homo sapiens) (UniProt Q9BUB5); assay: Inhibition of MKNK1 (unknown origin) at 5.5 uM by Caliper Mobility Shift Assay
[4] = target: Fibroblast growth factor receptor 4 (Homo sapiens) (UniProt P22455); assay: Inhibition of FGFR4 (unknown origin) at 5.5 uM by Caliper Mobility Shift Assay
[5] = target: TRAF2 and NCK-interacting protein kinase (Homo sapiens) (UniProt Q9UKE5); assay: Inhibition of TNIK (unknown origin) at 5.5 uM by Caliper Mobility Shift Assay
[6] = target: ALK tyrosine kinase receptor (Homo sapiens) (UniProt Q9UM73); assay: Inhibition of ALK (unknown origin) at 5.5 uM by Caliper Mobility Shift Assay
[7] = target: Proto-oncogene tyrosine-protein kinase receptor Ret (Homo sapiens) (UniProt P07949); assay: Inhibition of RET (unknown origin) at 5.5 uM by Caliper Mobility Shift Assay
[8] = target: Receptor tyrosine-protein kinase erbB-4 (Homo sapiens) (UniProt Q15303); assay: Inhibition of ERBB4 (HER4) (unknown origin) at 5.5 uM by Caliper Mobility Shift Assay
[9] = target: Interleukin-1 receptor-associated kinase 1 (Homo sapiens) (UniProt P51617); assay: Inhibition of IRAK1 (unknown origin) at 5.5 uM by Caliper Mobility Shift Assay
[10] = target: T2, Mitogen-activated protein kinase 14 (Homo sapiens, UniProt Q16539); assay: Inhibition of p38alpha (unknown origin) assessed as phosphorylation of ATF-2 by ELISA
[11] = target: Insulin receptor (Homo sapiens) (UniProt P06213); assay: Inhibition of INSR (unknown origin) at 5.5 uM by Caliper Mobility Shift Assay
[12] = target: MAP kinase-activated protein kinase 2 (Homo sapiens) (UniProt P49137); assay: Inhibition of MK2 (unknown origin) at 5.5 uM by Caliper Mobility Shift Assay
[13] = target: Cyclin-dependent kinase 2 (Homo sapiens) (UniProt P24941); assay: Inhibition of CDK2 (unknown origin) at 5.5 uM by Caliper Mobility Shift Assay
[14] = target: Casein kinase I isoform gamma-3 (Homo sapiens) (UniProt Q9Y6M4); assay: Inhibition of CSNK1G3 (CK1) (unknown origin) at 5.5 uM by Caliper Mobility Shift Assay
[15] = target: T2, Mitogen-activated protein kinase 14; assay: Inhibition of p38a (unknown origin) at 5.5 uM by Caliper Mobility Shift Assay
[16] = target: Serine/threonine-protein kinase PAK 2 (Homo sapiens) (UniProt Q13177); assay: Inhibition of PAK2 (unknown origin) at 5.5 uM by Caliper Mobility Shift Assay
[17] = target: Tyrosine-protein kinase Lck (Homo sapiens) (UniProt P06239); assay: Inhibition of LCK (unknown origin) at 5.5 uM by Caliper Mobility Shift Assay
[18] = target: RAC-alpha serine/threonine-protein kinase (Homo sapiens) (UniProt P31749); assay: Inhibition of AKT1 (PKBa) (unknown origin) at 5.5 uM by Caliper Mobility Shift Assay
[19] = target: Mitogen-activated protein kinase 9 (Homo sapiens) (UniProt P45984); assay: Inhibition of JNK2 (unknown origin) at 5.5 uM by Caliper Mobility Shift Assay
Homo sapiens = species on record: Homo sapiens; assay: Inhibition of PRKACA(PKA) (unknown origin) at 5.5 uM by Caliper Mobility Shift Assay
[20] = target: T3, Serine/threonine-protein kinase 4 (Homo sapiens) (UniProt Q13043); assay: Inhibition of STK4 (unknown origin) at 5.5 uM by Caliper Mobility Shift Assay
T3 sequence (whole entry): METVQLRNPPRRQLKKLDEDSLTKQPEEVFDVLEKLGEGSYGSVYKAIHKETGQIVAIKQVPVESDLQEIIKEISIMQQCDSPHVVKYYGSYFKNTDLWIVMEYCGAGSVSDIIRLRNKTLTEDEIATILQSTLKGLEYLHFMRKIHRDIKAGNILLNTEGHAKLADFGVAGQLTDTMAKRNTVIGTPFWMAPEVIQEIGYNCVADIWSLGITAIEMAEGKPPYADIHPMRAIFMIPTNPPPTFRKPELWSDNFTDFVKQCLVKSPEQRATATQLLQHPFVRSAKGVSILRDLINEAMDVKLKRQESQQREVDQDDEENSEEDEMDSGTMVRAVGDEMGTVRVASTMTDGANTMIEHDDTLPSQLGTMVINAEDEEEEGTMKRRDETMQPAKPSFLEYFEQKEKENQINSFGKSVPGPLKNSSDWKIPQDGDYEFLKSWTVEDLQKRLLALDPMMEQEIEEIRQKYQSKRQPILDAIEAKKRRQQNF

[21] = target: Protein kinase C theta type (Homo sapiens) (UniProt Q04759); assay: Inhibition of PRKCQ (unknown origin) at 5.5 uM by Caliper Mobility Shift Assay
[22] = target: Hepatocyte growth factor receptor (Homo sapiens) (UniProt P08581); assay: Inhibition of MET (unknown origin) at 5.5 uM by Caliper Mobility Shift Assay
[23] = target: Tyrosine-protein kinase JAK1 (Homo sapiens) (UniProt P23458); assay: Inhibition of JAK1 (unknown origin) at 5.5 uM by Caliper Mobility Shift Assay
[24] = target: Mitogen-activated protein kinase 10 (Homo sapiens, UniProt P53779); assay: Inhibition of MAPK10 (JNK3) (unknown origin) at 5.5 uM by Caliper Mobility Shift Assay
[25] = target: Calcium/calmodulin-dependent protein kinase type II subunit beta (Homo sapiens) (UniProt Q13554); assay: Inhibition of CAMK2 (unknown origin) at 5.5 uM by Caliper Mobility Shift Assay
[26] = target: Proto-oncogene tyrosine-protein kinase Src (Homo sapiens) (UniProt P12931); assay: Inhibition of cSRC (unknown origin) at 5.5 uM by Caliper Mobility Shift Assay
Chain of Proto-oncogene tyrosine-protein kinase Src (Homo sapiens) (P12931 2-536 limits assumed): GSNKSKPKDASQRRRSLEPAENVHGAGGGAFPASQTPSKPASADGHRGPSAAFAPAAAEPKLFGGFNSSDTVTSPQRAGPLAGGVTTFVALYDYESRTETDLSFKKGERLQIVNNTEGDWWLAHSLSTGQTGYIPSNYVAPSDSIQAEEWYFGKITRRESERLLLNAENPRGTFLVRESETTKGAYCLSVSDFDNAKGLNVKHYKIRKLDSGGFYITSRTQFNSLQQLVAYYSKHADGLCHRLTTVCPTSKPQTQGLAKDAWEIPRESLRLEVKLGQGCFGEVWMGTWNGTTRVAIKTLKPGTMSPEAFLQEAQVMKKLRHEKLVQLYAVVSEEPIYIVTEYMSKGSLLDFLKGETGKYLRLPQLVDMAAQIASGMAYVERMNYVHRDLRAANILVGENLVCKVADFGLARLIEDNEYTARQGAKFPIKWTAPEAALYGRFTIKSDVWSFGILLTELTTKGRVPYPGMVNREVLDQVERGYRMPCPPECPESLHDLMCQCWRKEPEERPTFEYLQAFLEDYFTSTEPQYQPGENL

Chain of Interleukin-1 receptor-associated kinase 1 (Homo sapiens) (P51617 whole entry, looked up): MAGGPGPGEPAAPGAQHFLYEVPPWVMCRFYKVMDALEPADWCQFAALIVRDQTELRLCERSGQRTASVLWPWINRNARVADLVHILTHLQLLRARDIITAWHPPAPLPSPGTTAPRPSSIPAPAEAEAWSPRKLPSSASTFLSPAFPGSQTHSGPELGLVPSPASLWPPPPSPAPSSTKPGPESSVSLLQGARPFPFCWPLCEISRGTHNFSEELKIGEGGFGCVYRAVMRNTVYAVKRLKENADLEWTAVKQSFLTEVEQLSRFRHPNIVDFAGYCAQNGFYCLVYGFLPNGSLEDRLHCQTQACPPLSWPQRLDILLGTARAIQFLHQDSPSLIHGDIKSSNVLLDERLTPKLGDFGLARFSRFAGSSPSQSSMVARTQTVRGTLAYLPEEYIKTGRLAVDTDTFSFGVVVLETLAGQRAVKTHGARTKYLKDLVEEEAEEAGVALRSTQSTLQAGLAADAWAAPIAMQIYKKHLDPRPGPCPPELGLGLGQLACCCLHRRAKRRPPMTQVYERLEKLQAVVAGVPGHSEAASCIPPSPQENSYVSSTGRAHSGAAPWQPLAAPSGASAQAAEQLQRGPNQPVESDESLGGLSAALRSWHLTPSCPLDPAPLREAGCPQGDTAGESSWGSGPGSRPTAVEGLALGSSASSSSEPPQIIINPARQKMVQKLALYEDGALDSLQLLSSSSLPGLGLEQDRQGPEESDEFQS
Chain of Serine/threonine-protein kinase PAK 2 (Homo sapiens) (Q13177 whole entry): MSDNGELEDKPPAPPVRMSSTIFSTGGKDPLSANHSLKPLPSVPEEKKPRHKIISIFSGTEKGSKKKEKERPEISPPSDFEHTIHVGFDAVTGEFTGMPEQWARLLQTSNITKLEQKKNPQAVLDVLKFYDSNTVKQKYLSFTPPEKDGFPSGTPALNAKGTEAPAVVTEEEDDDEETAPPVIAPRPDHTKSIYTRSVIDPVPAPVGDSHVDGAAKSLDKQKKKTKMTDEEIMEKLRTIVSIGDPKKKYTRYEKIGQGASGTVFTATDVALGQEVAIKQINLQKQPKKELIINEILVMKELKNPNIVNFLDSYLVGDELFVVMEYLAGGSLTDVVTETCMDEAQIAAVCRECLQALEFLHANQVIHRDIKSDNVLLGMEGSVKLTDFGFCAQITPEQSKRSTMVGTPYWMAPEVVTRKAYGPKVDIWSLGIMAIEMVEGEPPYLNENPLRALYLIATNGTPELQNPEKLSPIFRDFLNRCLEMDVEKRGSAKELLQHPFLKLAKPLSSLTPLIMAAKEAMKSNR
Chain of Calcium/calmodulin-dependent protein kinase type II subunit beta (Homo sapiens) (Q13554 whole entry): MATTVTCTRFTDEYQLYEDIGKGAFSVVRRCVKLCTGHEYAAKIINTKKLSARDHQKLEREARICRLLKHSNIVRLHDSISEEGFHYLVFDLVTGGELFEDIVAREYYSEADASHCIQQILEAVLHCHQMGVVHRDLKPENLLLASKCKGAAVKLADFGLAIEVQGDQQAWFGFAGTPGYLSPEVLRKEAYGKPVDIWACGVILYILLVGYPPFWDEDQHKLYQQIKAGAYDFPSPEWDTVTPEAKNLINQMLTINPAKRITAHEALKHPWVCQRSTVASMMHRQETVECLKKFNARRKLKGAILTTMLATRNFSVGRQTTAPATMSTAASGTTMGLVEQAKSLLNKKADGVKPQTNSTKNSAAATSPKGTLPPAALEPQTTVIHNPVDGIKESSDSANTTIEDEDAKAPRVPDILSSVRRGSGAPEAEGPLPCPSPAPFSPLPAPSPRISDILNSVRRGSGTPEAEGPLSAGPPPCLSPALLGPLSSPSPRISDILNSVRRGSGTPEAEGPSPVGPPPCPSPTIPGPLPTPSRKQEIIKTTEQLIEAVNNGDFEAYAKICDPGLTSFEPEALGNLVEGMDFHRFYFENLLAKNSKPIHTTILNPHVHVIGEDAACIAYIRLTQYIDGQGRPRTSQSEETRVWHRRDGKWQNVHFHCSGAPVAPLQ
Chain of ALK tyrosine kinase receptor (Homo sapiens) (Q9UM73 19-1620 limits assumed): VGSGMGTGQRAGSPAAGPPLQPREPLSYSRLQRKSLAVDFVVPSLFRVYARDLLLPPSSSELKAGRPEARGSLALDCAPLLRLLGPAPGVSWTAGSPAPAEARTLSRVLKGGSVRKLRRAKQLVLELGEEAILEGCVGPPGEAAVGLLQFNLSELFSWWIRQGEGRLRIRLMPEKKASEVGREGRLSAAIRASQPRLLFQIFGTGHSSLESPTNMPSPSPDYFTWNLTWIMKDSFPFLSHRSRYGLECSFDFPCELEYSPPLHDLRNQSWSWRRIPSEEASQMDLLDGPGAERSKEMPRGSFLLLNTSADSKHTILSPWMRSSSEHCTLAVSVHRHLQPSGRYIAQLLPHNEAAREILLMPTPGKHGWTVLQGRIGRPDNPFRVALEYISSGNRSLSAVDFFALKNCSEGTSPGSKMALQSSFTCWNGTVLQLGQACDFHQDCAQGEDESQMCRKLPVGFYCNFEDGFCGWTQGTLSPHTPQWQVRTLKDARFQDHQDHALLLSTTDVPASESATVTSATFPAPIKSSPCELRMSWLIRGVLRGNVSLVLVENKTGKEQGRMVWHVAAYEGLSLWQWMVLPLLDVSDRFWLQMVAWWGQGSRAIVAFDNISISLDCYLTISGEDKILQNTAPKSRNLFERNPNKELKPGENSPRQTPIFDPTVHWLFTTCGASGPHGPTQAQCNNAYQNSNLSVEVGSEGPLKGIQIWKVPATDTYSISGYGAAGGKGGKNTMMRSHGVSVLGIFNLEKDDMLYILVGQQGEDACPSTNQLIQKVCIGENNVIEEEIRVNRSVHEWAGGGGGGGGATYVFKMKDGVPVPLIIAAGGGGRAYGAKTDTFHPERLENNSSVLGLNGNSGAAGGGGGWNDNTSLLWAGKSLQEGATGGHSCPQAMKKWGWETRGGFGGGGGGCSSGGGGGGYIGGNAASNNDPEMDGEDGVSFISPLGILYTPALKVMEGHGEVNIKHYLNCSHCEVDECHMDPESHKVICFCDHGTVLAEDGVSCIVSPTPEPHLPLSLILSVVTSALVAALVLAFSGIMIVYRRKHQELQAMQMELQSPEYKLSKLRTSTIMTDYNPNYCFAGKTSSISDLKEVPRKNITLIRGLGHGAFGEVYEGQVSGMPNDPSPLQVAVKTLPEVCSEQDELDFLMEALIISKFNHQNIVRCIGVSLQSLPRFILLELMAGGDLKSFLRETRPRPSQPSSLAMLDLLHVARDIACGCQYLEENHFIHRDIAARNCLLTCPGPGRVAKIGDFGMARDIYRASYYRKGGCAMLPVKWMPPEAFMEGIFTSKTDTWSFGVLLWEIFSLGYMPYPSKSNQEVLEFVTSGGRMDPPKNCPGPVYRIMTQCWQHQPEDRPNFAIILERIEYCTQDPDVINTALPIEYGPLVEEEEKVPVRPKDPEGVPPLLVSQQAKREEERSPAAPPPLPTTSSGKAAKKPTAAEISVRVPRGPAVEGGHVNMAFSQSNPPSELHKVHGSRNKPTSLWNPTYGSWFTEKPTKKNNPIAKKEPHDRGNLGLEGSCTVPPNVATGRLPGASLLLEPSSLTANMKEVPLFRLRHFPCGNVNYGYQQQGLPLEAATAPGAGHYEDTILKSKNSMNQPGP
Chain of RAC-alpha serine/threonine-protein kinase (Homo sapiens) (P31749 whole entry): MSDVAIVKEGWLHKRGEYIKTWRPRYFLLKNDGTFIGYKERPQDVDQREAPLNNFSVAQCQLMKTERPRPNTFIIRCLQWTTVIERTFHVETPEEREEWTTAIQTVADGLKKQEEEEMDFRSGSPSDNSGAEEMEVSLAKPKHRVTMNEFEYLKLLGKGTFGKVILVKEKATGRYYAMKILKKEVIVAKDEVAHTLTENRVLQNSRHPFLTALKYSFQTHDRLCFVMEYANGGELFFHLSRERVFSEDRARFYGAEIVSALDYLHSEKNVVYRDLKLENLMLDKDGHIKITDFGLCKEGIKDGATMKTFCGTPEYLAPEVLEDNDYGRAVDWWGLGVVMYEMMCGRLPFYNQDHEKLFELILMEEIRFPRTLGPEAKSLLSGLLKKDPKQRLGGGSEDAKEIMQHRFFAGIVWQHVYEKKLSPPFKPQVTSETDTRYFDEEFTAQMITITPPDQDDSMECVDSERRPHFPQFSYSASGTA
T2 sequence (Q16539 whole entry): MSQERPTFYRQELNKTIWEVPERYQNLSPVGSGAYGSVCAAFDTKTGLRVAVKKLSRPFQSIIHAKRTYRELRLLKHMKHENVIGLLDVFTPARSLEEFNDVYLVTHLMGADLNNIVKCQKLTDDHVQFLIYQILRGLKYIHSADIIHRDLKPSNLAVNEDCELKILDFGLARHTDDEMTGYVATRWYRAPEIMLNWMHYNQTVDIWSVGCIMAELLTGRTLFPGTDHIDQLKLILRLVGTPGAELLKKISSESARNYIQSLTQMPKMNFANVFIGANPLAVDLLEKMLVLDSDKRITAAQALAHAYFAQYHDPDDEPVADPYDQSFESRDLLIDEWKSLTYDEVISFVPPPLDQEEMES

inhibition [1] [%] | inhibition [2] [%] | inhibition [3] [%] | inhibition [4] [%] | inhibition [5] [%] | inhibition [6] [%] | inhibition [7] [%] | inhibition [8] [%] | inhibition [9] [%] | IC50 [10] [nM] | inhibition [11] [%] | inhibition [12] [%] | inhibition [13] [%] | inhibition [14] [%] | inhibition [15] [%] | inhibition [16] [%] | inhibition [17] [%] | inhibition [18] [%] | inhibition [19] [%] | inhibition (Homo sapiens) [%] | SMILES | further results
< 50 | < 50 | < 50 | < 50 | < 50 | < 50 | < 50 | < 50 | < 50 | 223 | < 50 | < 50 | < 50 | < 50 | < 50 | < 50 | < 50 | < 50 | < 50 | < 50 | CC(=O)Nc1cc(-c2c(-c3ccc(F)cc3)nc(S/C=C\C(=O)O)n2CC2CCCO2)ccn1 (racemic) | inhibition [20]: < 50%; inhibition [21]: < 50%; inhibition [22]: < 50%; inhibition [23]: < 50%; inhibition [24]: < 50%; inhibition [25]: < 50%; inhibition [26]: < 50%
< 50 | < 50 | < 50 | < 50 | < 50 | < 50 | < 50 | < 50 | < 50 | 165 | < 50 | < 50 | < 50 | < 50 | < 50 | < 50 | < 50 | < 50 | < 50 | < 50 | CC(=O)Nc1cc(-c2c(-c3ccc(F)cc3)nc(S/C=C\C(=O)O)n2C2CCCCC2)ccn1 | inhibition [20]: < 50%; inhibition [21]: < 50%; inhibition [22]: < 50%; inhibition [23]: < 50%; inhibition [24]: < 50%; inhibition [25]: < 50%; inhibition [26]: < 50%
< 50 | < 50 | < 50 | < 50 | < 50 | < 50 | < 50 | < 50 | < 50 | 135 | < 50 | < 50 | < 50 | < 50 | < 50 | < 50 | < 50 | < 50 | < 50 | < 50 | COC(Cn1c(SC2CCC(C(=O)O)CC2O)nc(-c2ccc(F)cc2)c1-c1ccnc(NC(C)=O)c1)OC (stereo not given) | inhibition [20]: < 50%; inhibition [21]: < 50%; inhibition [22]: < 50%; inhibition [23]: < 50%; inhibition [24]: < 50%; inhibition [25]: < 50%; inhibition [26]: < 50%
< 50 | < 50 | < 50 | < 50 | < 50 | < 50 | < 50 | < 50 | < 50 | 123 | < 50 | < 50 | < 50 | < 50 | < 50 | < 50 | < 50 | < 50 | < 50 | < 50 | CC(=O)Nc1cc(-c2c(-c3ccc(F)cc3)nc(S/C=C\C(=O)O)n2C2CC2)ccn1 | inhibition [20]: < 50%; inhibition [21]: < 50%; inhibition [22]: < 50%; inhibition [23]: < 50%; inhibition [24]: < 50%; inhibition [25]: < 50%; inhibition [26]: < 50%
< 50 | < 50 | < 50 | < 50 | < 50 | < 50 | < 50 | < 50 | < 50 | 356 | < 50 | < 50 | < 50 | < 50 | < 50 | < 50 | < 50 | < 50 | < 50 | < 50 | CC(=O)Nc1cc(-c2c(-c3ccc(F)cc3)nc(Sc3cccc(I)n3)n2C2CCCCC2)ccn1 | inhibition [20]: < 50%; inhibition [21]: < 50%; inhibition [22]: < 50%; inhibition [23]: < 50%; inhibition [24]: < 50%; inhibition [25]: < 50%; inhibition [26]: < 50%
